Experimental data from patent US9650395B2, “Antibacterial compounds and methods for use” (PTC Therapeutics, Inc., priority 2011, dated 2017).
≈ marks a conversion by molar mass, not a printed value. Like-named read-outs stand apart in the source and are kept apart here.

Legend:
[1] = tested on: Moraxella catarrhalis (M. catarrhalis) 25238; experiment: Antibacterial activity, MIC, M. catarrhalis 25238; assay type: cell-based; settings: Moraxella catarrhalis, M. catarrhalis 25238; read-out: MIC 25238
[2] = tested on: Neisseria meningitidis (N. meningitidis) 13090; experiment: Antibacterial activity, MIC, N. meningitidis 13090; assay type: cell-based; settings: Neisseria meningitidis; N. meningitidis 13090; read-out: MIC 13090
[3] = tested on: super sensitive Gram-negative Escherichia coli (E. coli) BAS849; experiment: Antibacterial activity, microbroth dilution MIC, E. coli BAS849; assay type: cell-based; settings: Escherichia coli, read-out: MIC, BAS849
[4] = tested on: Gram-positive Staphylococcus aureus (S. aureus) 29213; experiment: Antibacterial activity, microbroth dilution MIC, S. aureus 29213; assay type: cell-based; settings: Staphylococcus aureus; S. aureus 29213, microbroth dilution; read-out: MIC, 29213
[5] = tested on: Haemophilus influenzae (H. influenzae) 49247; experiment: Antibacterial activity, MIC, H. influenzae 49247; assay type: cell-based; settings: Haemophilus influenzae; H. influenzae 49247; read-out: MIC 49247
Source text: (§1) The antibacterial activity from a microbroth dilution method may be presented as the minimum inhibitory concentration (MIC in […]). The MIC value is the lowest concentration of a drug which prevents macroscopically visible bacterial growth under test conditions.
Antibacterial activity of test compounds against the Gram-negative bacteria Haemophilus influenzae (H. influenzae) 49247, Moraxella catarrhalis (M. catarrhalis) 25238 and Neisseria meningitidis (N. meningitidis) 13090 is shown in Table 6.

[6] = tested on: control Gram-negative E. coli 25922 strain; experiment: Antibacterial activity, microbroth dilution MIC, E. coli 25922; assay type: cell-based, Escherichia coli; settings: Escherichia coli; E. coli 25922, microbroth dilution; read-out: MIC, 25922
[7] = tested on: E. coli ELZ4251 (MDR clinical isolate); experiment: Antibacterial activity, MIC, MDR E. coli ELZ4251; assay type: cell-based, Escherichia coli; settings: Escherichia coli, E. coli ELZ4251, MDR clinical isolate; read-out: MIC ELZ4251
[8] = tested on: quinolone resistant E. coli LZ3111; experiment: Antibacterial activity, MIC, quinolone resistant E. coli LZ3111; assay type: cell-based, Escherichia coli; settings: Escherichia coli, read-out: MIC, LZ3111
Source text: as §1
Mutations in these regions are known to confer a high level resistance to the quinolone class of antibiotics.

[9] = tested on: E. coli ELZ4000 (MDR clinical isolate); experiment: Antibacterial activity, MIC, MDR E. coli ELZ4000; assay type: cell-based, Escherichia coli; settings: Escherichia coli; E. coli ELZ4000, MDR clinical isolate; read-out: MIC ELZ4000
[10] = E. coli BAS849, microbroth dilution

| Compound | MIC [1] [µg/mL] | MIC [2] [µg/mL] | MIC [3, 10] [µg/mL] | MIC [4] [µg/mL] | MIC [5] [µg/mL] | MIC [6] [µg/mL] | MIC [7] [µg/mL] | MIC [8] [µg/mL] | MIC [9] [µg/mL] | MIC [3] [µg/mL] |
| --- | --- | --- | --- | --- | --- | --- | --- | --- | --- | --- |
| CN(C)c1ccc(-c2[nH]c(=O)c(C(=O)O)cc2Cc2ccccc2)cc1 [Cpd 1, 5-benzyl-6-[4-(dimethylamino)phenyl]-2-oxo-1,2-dihydropyridine-3-carboxylic acid] | 3.5 to 12.5 (≈ 10 to 35.9 µM) | 3.5 to 12.5 (≈ 10 to 35.9 µM) | 12.5 to 150 (≈ 35.9 to 431 µM) | 12.5 to 150 (≈ 35.9 to 431 µM) | < 1 |  |  |  |  |  |
| CN(C)c1ccc(-c2[nH]c(=O)c(C(=O)O)c(O)c2Cc2ccccc2)cc1 [Cpd 2, 5-benzyl-6-[4-(dimethylamino)phenyl]-4-hydroxy-2-oxo-1,2-dihydropyridine-3-carboxylic acid] | < 1 | < 1 | 12.5 to 150 (≈ 34.3 to 412 µM) | 3.5 to 12.5 (≈ 9.6 to 34.3 µM) | < 1 | 12.5 to 150 (≈ 34.3 to 412 µM) |  |  |  |  |
| CN(C)c1ccc(-c2[nH]c(=O)c(C(=O)O)cc2C2CCCCC2)cc1 [Cpd 6, 5-cyclohexyl-6-[4-(dimethylamino)phenyl]-2-oxo-1,2-dihydropyridine-3-carboxylic acid] | 3.5 to 12.5 (≈ 10.3 to 36.7 µM) | < 1 | 3.5 to 12.5 (≈ 10.3 to 36.7 µM) | 12.5 to 150 (≈ 36.7 to 441 µM) | < 1 | 12.5 to 150 (≈ 36.7 to 441 µM) |  |  |  |  |
| CN(C)c1ccc(-c2[nH]c(=O)c(C(=O)O)c(O)c2C2CCCCC2)cc1 [Cpd 7, 5-cyclohexyl-6-[4-(dimethylamino)phenyl]-4-hydroxy-2-oxo-1,2-dihydropyridine-3-carboxylic acid] | < 1 | 1 to 3.5 (≈ 2.81 to 9.82 µM) | 3.5 to 12.5 (≈ 9.82 to 35.1 µM) | 1 to 3.5 (≈ 2.81 to 9.82 µM) | < 1 | 12.5 to 150 (≈ 35.1 to 421 µM) |  |  |  |  |
| CCCc1c(-c2ccc(N(C)C)cc2)[nH]c(=O)c(C(=O)O)c1O [Cpd 9, 6-[4-(dimethylamino)phenyl]-4-hydroxy-2-oxo-5-propyl-1,2-dihydropyridine-3-carboxylic acid] | < 1 | < 1 | < 1 | 1 to 3.5 (≈ 3.16 to 11.1 µM) | < 1 | 12.5 to 150 (≈ 39.5 to 474 µM) |  |  |  |  |
| CN(C)c1ccc(-c2[nH]c(=O)c(C(=O)O)cc2C(=O)O)cc1 [Cpd 11, 6-[4-(dimethylamino)phenyl]-2-oxo-1,2-dihydropyridine-3,5-dicarboxylic acid] | 12.5 to 150 (≈ 41.4 to 496 µM) | 12.5 to 150 (≈ 41.4 to 496 µM) | 12.5 to 150 (≈ 41.4 to 496 µM) | 12.5 to 150 (≈ 41.4 to 496 µM) | < 1 | 12.5 to 150 (≈ 41.4 to 496 µM) |  |  |  |  |
| CN(C)c1ccc(-c2[nH]c(=O)c(C(=O)O)c(O)c2C2CC2)cc1 [Cpd 13, 5-cyclopropyl-6-[4-(dimethylamino)phenyl]-4-hydroxy-2-oxo-1,2-dihydropyridine-3-carboxylic acid] | < 1 | < 1 | 1 to 3.5 (≈ 3.18 to 11.1 µM) | 3.5 to 12.5 (≈ 11.1 to 39.8 µM) | < 1 | 12.5 to 150 (≈ 39.8 to 477 µM) |  |  |  |  |
| CN(C)c1ccc(-c2[nH]c(=O)c(C(=O)O)cc2C#N)cc1 [Cpd 14, 5-cyano-6-[4-(dimethylamino)phenyl]-2-oxo-1,2-dihydropyridine-3-carboxylic acid] | 12.5 to 150 (≈ 44.1 to 529 µM) | 12.5 to 150 (≈ 44.1 to 529 µM) | 12.5 to 150 (≈ 44.1 to 529 µM) | 12.5 to 150 (≈ 44.1 to 529 µM) | < 1 | 12.5 to 150 (≈ 44.1 to 529 µM) |  |  |  |  |
| CCc1cc(C(=O)O)c(=O)[nH]c1-c1ccc(N(C)CCOC2CCCCO2)cc1 (centres unmarked) [Cpd 16, 5-ethyl-6-(4-{methyl[2-(tetrahydro-2H-pyran-2-yloxy)ethyl]amino}phenyl)-2-oxo-1,2-dihydropyridine-3-carboxylic acid] | < 1 |  | < 1 | 12.5 to 150 (≈ 31.2 to 375 µM) | < 1 | 3.5 to 12.5 (≈ 8.74 to 31.2 µM) | 12.5 to 150 (≈ 31.2 to 375 µM) | 12.5 to 150 (≈ 31.2 to 375 µM) | 12.5 to 150 (≈ 31.2 to 375 µM) |  |
| CCc1c(-c2ccc(N(C)CCO)cc2)[nH]c(=O)c(C(=O)O)c1O [Cpd 18, 5-ethyl-4-hydroxy-6-{4-[(2-hydroxyethyl)(methyl)amino]phenyl}-2-oxo-1,2-dihydropyridine-3-carboxylic acid] | < 1 |  | < 1 | 3.5 to 12.5 (≈ 10.5 to 37.6 µM) | < 1 | 3.5 to 12.5 (≈ 10.5 to 37.6 µM) | 12.5 to 150 (≈ 37.6 to 451 µM) | 12.5 to 150 (≈ 37.6 to 451 µM) | 12.5 to 150 (≈ 37.6 to 451 µM) |  |
| CN(C)c1ccc(-c2[nH]c(=O)c(C(=O)O)cc2CN)cc1.Cl [Cpd 22, 5-(aminomethyl)-6-[4-(dimethylamino)phenyl]-2-oxo-1,2-dihydropyridine-3-carboxylic acid hydrochloride] | 12.5 to 150 | 3.5 to 12.5 | 12.5 to 150 | 12.5 to 150 | 12.5 to 150 | 12.5 to 150 |  |  |  |  |
| CCc1c(-c2ccc(NCCCI)cc2)[nH]c(=O)c(C(=O)O)c1O [Cpd 82, 5-ethyl-4-hydroxy-6-{4-[(3-iodopropyl)amino]phenyl}-2-oxo-1,2-dihydropyridine-3-carboxylic acid] | < 1 | < 1 | 3.5 to 12.5 (≈ 7.91 to 28.3 µM) | 1 to 3.5 (≈ 2.26 to 7.91 µM) | < 1 | 12.5 to 150 (≈ 28.3 to 339 µM) |  |  |  |  |
| Cc1cc(C(=O)O)c(=O)[nH]c1-c1ccc(N2CCOCC2)c(F)c1 [Cpd 89, 6-[3-fluoro-4-(morpholin-4-yl)phenyl]-5-methyl-2-oxo-1,2-dihydropyridine-3-carboxylic acid] | 12.5 to 150 (≈ 37.6 to 451 µM) | 12.5 to 150 (≈ 37.6 to 451 µM) | 12.5 to 150 (≈ 37.6 to 451 µM) | 12.5 to 150 (≈ 37.6 to 451 µM) | < 1 | 12.5 to 150 (≈ 37.6 to 451 µM) |  |  |  |  |
| CCc1cc(C(=O)O)c(=O)[nH]c1-c1ccc(N2CCN(C(=O)OC(C)(C)C)CC2)c(F)c1 [Cpd 91, 6-{4-[4-(tert-butoxycarbonyl)piperazin-1-yl]-3-fluorophenyl}-5-ethyl-2-oxo-1,2-dihydropyridine-3-carboxylic acid] | < 1 | 3.5 to 12.5 (≈ 7.86 to 28.1 µM) | 12.5 to 150 (≈ 28.1 to 337 µM) | 12.5 to 150 (≈ 28.1 to 337 µM) | 1 to 3.5 (≈ 2.24 to 7.86 µM) | 12.5 to 150 (≈ 28.1 to 337 µM) |  |  |  |  |
| CCc1c(-c2ccc(N(CC)CC)cc2)[nH]c(=O)c(C(=O)O)c1O [Cpd 98, 6-[4-(diethylamino)phenyl]-5-ethyl-4-hydroxy-2-oxo-1,2-dihydropyridine-3-carboxylic acid] | 3.5 to 12.5 (≈ 10.6 to 37.8 µM) | < 1 | < 1 | 3.5 to 12.5 (≈ 10.6 to 37.8 µM) | 1 to 3.5 (≈ 3.03 to 10.6 µM) | 12.5 to 150 (≈ 37.8 to 454 µM) |  |  |  |  |
| CCc1cc(C(=O)O)c(=O)[nH]c1-c1ccc(N2CCN(C(=O)OC(C)(C)C)CC2)cc1 [Cpd 102, 6-{4-[4-(tert-butoxycarbonyl)piperazin-1-yl]phenyl}-5-ethyl-2-oxo-1,2-dihydropyridine-3-carboxylic acid] | < 1 | 1 to 3.5 (≈ 2.34 to 8.19 µM) | 1 to 3.5 (≈ 2.34 to 8.19 µM) | 12.5 to 150 (≈ 29.2 to 351 µM) | 1 to 3.5 (≈ 2.34 to 8.19 µM) | 12.5 to 150 (≈ 29.2 to 351 µM) |  |  |  |  |
| CCc1cc(C(=O)O)c(=O)[nH]c1-c1ccc(N2CCNCC2)cc1.O=C(O)C(F)(F)F [Cpd 103, 5-ethyl-2-oxo-6-[4-(piperazin-1-yl)phenyl]-1,2-dihydropyridine-3-carboxylic acid trifluoroacetate] | 12.5 to 150 | 3.5 to 12.5 |  | 12.5 to 150 | < 1 | 12.5 to 150 |  |  |  | 3.5 to 12.5 |
| CCc1cc(C(=O)O)c(=O)[nH]c1-c1ccc(N(C)CC)cc1 [Cpd 160, 5-ethyl-6-{4-[ethyl(methyl)amino]phenyl}-2-oxo-1,2-dihydropyridine-3-carboxylic acid] | < 1 |  | < 1 | 12.5 to 150 (≈ 41.6 to 499 µM) | < 1 | 1 to 3.5 (≈ 3.33 to 11.7 µM) | 12.5 to 150 (≈ 41.6 to 499 µM) | 12.5 to 150 (≈ 41.6 to 499 µM) | 12.5 to 150 (≈ 41.6 to 499 µM) |  |
